Results: PMC9958940 (Viruses, 2023)
Starred links: 1 amine or outer side, 2 acyl side, 3 side chain; linkers in the order of their positions; H or OH if unused. Positions of bridges follow the written chain, without caps; N, C: chain ends. Non-standard residues stand in square brackets, D forms with d. Residues, ends and D or L forms follow the SMILES beside them. *: point of attachment. hTyr(3S-OH,4S-OH,3'-OSO3H) = N[C@H](C(=O)O)[C@H](O)[C@@H](O)c1ccc(O)c(OS(=O)(=O)O)c1; Orn(4R-OH,5R-OH) = O=C([C@H](C[C@@H](O)[C@@H](O)N[*:3])N[*:1])[*:2]; Pro(3S-OH,4S-Me) = C[C@H]1CN[C@H](C(=O)O)[C@H]1O; X1 = CCCCCOc1ccc(-c2cc(-c3ccc(C(=O)*)cc3)no2)cc1; Gln(3R-OH) = NC(=O)C[C@@H](O)[C@H](N)C(=O)O; Hyp = O=C(O)[C@@H]1C[C@@H](O)CN1

How the values were obtained:
SARS-CoV-2 E406W variant = assay type: cell-based; conditions: read-out: SARS-CoV-2 RNA IC50, E406W
[1] = tested on: SARS-CoV-2 R10/E796G C799F; assay type: cell-based; conditions: read-out: SARS-CoV-2 RNA IC50, R10/E796G C799F

CCCCCOc1ccc(-c2cc(-c3ccc(C(=O)N[C@H]4C[C@@H](O)[C@@H](O)NC(=O)[C@@H]5[C@@H](O)[C@@H](C)CN5C(=O)[C@H]([C@H](O)CC(N)=O)NC(=O)[C@H]([C@H](O)[C@@H](O)c5ccc(O)c(OS(=O)(=O)O)c5)NC(=O)[C@@H]5C[C@@H](O)CN5C(=O)[C@H]([C@@H](C)O)NC4=O)cc3)no2)cc1 [Micafungin] (X1-[Orn(4R-OH,5R-OH)]T[Hyp][hTyr(3S-OH,4S-OH,3'-OSO3H)][Gln(3R-OH)][Pro(3S-OH,4S-Me)]; lactam 1-C)
IC50 (SARS-CoV-2 E406W variant): 21.7 µM
IC50 [1]: 31.3 µM
